Here are results for 14 compounds from patent US9382228B2 (priority 2013, dated 2016).

Where only a bound is given, the exact number is not on record here.

Test [1] relates to phospho-FMS in THP-1 cells. Nature of the test: cells. The settings on record: Homo sapiens, THP-1, read-out: pFMS inhibition in THP-1 cells.
Method: In a separate 96 well black clear bottom plate, one hundred and fifty thousand THP-1 cells were added per well in 100 μL in assay medium. Fifty microliters of diluted compound was then added to the cells. […] Lysates were prepared and used to perform the phospho-FMS ELISA as described by the manufacturer (catalog #DYC3268, R & D Systems, Minneapolis, Minn.). GraphPad Prism was used to calculate IC50 values obtained from data generated from the ELISA assay.
The target in test [2] is unphosphorylated c-KIT kinase (uKIT, Seq. ID no. 2) (Homo sapiens, UniProt P10721). Nature of the test: biochemical.
Method: uKit kinase (Seq. ID No. 2) Assay
In this assay, the oxidation of NADH (thus the decrease at A340 nm) was continuously monitored spectrophometrically. […] The inhibition reaction was started by mixing serial diluted test compound with the above reaction mixture. The absorption at 340 nm was monitored continuously for 4 hours at 30° C. on Synergy 2 plate reader (BioTech).
Test [3] deals with unphosphorylated PDGFRβ kinase (uPDGFRβ, Seq. ID No. 3) (Homo sapiens, UniProt P09619). Nature of the test: biochemical.
Sequence of unphosphorylated PDGFRβ kinase (uPDGFRβ, Seq. ID No. 3) (P09619 557-1106): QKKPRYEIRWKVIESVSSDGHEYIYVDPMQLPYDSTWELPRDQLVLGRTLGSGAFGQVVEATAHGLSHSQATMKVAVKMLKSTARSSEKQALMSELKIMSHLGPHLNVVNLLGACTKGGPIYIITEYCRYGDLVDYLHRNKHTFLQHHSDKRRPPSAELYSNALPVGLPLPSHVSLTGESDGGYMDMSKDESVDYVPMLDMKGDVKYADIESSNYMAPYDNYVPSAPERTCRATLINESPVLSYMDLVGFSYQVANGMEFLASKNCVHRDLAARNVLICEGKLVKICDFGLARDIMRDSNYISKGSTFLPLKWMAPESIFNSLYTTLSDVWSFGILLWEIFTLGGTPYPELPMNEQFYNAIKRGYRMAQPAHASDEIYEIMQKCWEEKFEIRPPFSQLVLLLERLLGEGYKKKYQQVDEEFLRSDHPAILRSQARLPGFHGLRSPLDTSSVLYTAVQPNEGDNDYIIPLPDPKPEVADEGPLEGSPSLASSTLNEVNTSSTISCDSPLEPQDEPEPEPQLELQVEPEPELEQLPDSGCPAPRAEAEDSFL
Method: Unphosphorylated PDGFRβ (uPDGFRβ) Kinase (Seq. ID No. 3) Assay
In this assay, the oxidation of NADH (thus the decrease at A340 nm) was continuously monitored spectrophometrically. […] The inhibition reaction was started by mixing serial diluted test compound with the above reaction mixture. The absorption at 340 nm was monitored continuously for 4 h at 30° C. on a Polarstar Optima or Synergy 2 plate reader. The reaction rate was calculated using the 1.5 to 2.5 h time frame. Percent inhibition was obtained by comparison of reaction rate with that of a control (i.e. with no test compound). IC50 values were calculated from a series of percent inhibition values determined at a range of inhibitor concentrations using software routines as implemented in the GraphPad Prism software package.
Test [4] has as its system M-NFS-60 cells. Nature of the test: cells. The settings on record: 67 h, read-out: M-NFS-60 cell proliferation.
Method: M-NFS-6 Cell Proliferation Assay
A serial dilution of test compound was dispensed into a 384-well black clear bottom plate (Corning, Corning, N.Y.). Two thousand five hundred cells were added per well in 50 μL complete growth medium. […] IC50 values were calculated from a series of percent inhibition values determined at a range of inhibitor concentrations using software routines as implemented in the GraphPad Prism software package.
For test [5], the target named is T1, unphosphorylated c-FMS kinase (uFMS, Seq. ID no. 1) (Homo sapiens, UniProt P07333).
T1 sequence (P07333 538-972): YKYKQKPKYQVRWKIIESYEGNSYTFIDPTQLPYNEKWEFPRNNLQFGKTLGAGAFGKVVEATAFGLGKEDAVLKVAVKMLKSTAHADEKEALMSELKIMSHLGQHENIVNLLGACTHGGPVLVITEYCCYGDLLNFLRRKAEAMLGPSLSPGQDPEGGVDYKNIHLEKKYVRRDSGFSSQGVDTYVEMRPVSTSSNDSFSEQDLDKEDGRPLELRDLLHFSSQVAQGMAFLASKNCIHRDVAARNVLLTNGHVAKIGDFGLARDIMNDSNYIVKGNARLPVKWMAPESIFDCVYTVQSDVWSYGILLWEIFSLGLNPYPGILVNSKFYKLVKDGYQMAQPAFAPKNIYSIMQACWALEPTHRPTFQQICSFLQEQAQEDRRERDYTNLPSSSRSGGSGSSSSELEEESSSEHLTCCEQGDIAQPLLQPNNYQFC
Nature of the test: biochemical.

The subject of test [6] is osteoclast precursors. Nature of the test: cells. The conditions noted are these: read-out: Osteoclast assay. It counts as cell-based.
Setting [7] is: uKIT, enzymatic assay, ATP 2000 μM.
Setting [8] is: uPDGFRb, enzymatic assay, ATP 500 μM.
Where [9] appears, read: uFMS, enzymatic assay, ATP 500 μM.

Sequence of unphosphorylated c-KIT kinase (uKIT, Seq. ID no. 2) (P10721 with tags, fused parts or gaps): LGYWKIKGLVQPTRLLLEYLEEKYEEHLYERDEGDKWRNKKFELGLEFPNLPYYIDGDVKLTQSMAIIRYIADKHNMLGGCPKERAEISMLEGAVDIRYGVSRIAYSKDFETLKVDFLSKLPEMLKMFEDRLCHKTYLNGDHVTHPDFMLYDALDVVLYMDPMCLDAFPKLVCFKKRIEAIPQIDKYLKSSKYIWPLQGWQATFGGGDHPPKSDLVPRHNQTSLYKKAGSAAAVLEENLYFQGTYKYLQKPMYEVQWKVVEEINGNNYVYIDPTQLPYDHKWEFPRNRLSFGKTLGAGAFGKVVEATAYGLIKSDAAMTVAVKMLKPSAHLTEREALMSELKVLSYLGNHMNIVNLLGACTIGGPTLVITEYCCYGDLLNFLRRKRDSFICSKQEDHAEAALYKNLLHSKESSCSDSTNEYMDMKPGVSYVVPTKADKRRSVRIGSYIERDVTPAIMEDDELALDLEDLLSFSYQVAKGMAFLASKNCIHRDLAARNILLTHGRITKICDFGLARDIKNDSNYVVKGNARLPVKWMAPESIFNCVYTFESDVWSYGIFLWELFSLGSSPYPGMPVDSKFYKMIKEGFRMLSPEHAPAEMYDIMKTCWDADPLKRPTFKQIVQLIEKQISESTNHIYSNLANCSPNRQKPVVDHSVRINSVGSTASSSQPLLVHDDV

Turning to `Cc1nc(NC(=O)NC(=O)C2CC(C)(C)C2)ccc1Oc1ccnc(-c2cnn(C)c2)c1` [Example 13, 3,3-dimethyl-N-((6-methyl-5-((2-(1-methyl-1H-pyrazol-4-yl)pyridin-4-yl)oxy)pyridin-2-yl)carbamoyl)cyclobutanecarboxamide], the IC50 in test [1] is under 10 nM; in test [2] (setting [7]), under 10 nM; in test [3] (setting [8]) it was 10 to 100 nM; in test [4], under 10 nM; in test [5] (setting [9]) it was under 10 nM; in test [6], under 10 nM.
As for `COC(C)(C)C(=O)NC(=O)Nc1cc(C)c(Oc2ccnc(-c3cnn(C)c3)c2)c(C)n1` [Example 140, N-((4,6-dimethyl-5-((2-(1-methyl-1H-pyrazol-4-yl)pyridin-4-yl)oxy)pyridin-2-yl)carbamoyl)-2-methoxy-2-methylpropanamide], the IC50 in test [1] is under 10 nM; in test [2] (setting [7]), 10 to 100 nM; in test [3] (setting [8]), 100 to 1000 nM; in test [4], under 10 nM; in test [5] (setting [9]), under 10 nM; in test [6], 10 to 100 nM.
With `Cc1nc(NC(=O)NC(=O)CCC2(C(F)(F)F)CC2)ccc1Oc1ccnc(-c2cnn(C)c2)c1` [Example 11, N-((6-methyl-5-((2-(1-methyl-1H-pyrazol-4-yl)pyridin-4-yl)oxy)pyridin-2-yl)carbamoyl)-3-(1-(trifluoromethyl)cyclopropyl)propanamide], the IC50 was 10 to 100 nM in test [1]; under 10 nM in test [2] (setting [7]); 10 to 100 nM in test [3] (setting [8]); under 10 nM in test [4]; under 10 nM in test [5] (setting [9]); under 10 nM in test [6].
With `CC(C)(C)C(=O)NC(=O)Nc1ccc(Oc2ccnc(-c3cnco3)c2)cn1` [Example 93, N-((5-((2-(oxazol-5-yl)pyridin-4-yl)oxy)pyridin-2-yl)carbamoyl)pivalamide], the IC50 was under 10 nM in test [1]; over 1000 nM in test [2] (setting [7]); over 1000 nM in test [3] (setting [8]); 10 to 100 nM in test [4]; 10 to 100 nM in test [5] (setting [9]); under 10 nM in test [6].
With `CCOC(C)(C)C(=O)NC(=O)Nc1ccc(Oc2ccnc(-c3cnn(C)c3)c2)cn1` [Example 123, 2-ethoxy-2-methyl-N-((5-((2-(1-methyl-1H-pyrazol-4-yl)pyridin-4-yl)oxy)pyridin-2-yl)carbamoyl)propanamide], the IC50 in test [1] was 10 to 100 nM; in test [2] (setting [7]), 100 to 1000 nM; in test [3] (setting [8]) it was 100 to 1000 nM; in test [4], 10 to 100 nM; in test [5] (setting [9]), under 10 nM; in test [6] it was under 10 nM.
On to `Cc1nc(NC(=O)NC(=O)C(C)(C)C(F)(F)F)ccc1Oc1ccnc(-c2cnn(C)c2)c1` [Example 36, 3,3,3-trifluoro-2,2-dimethyl-N-((6-methyl-5-((2-(1-methyl-1H-pyrazol-4-yl)pyridin-4-yl)oxy)pyridin-2-yl)carbamoyl)propanamide], for which the IC50 was 10 to 100 nM in test [1]; 100 to 1000 nM in test [2] (setting [7]); 100 to 1000 nM in test [3] (setting [8]); 10 to 100 nM in test [4]; under 10 nM in test [5] (setting [9]); 10 to 100 nM in test [6].
For the compound `Cn1cc(-c2cc(Oc3cnc(NC(=O)NC(=O)C(C)(C)C)nc3)ccn2)cn1` [Example 174, N-((5-((2-(1-methyl-1H-pyrazol-4-yl)pyridin-4-yl)oxy)pyrimidin-2-yl)carbamoyl)pivalamide], the IC50 is 10 to 100 nM in test [1]; 100 to 1000 nM in test [2] (setting [7]); over 1000 nM in test [3] (setting [8]); 10 to 100 nM in test [4]; 10 to 100 nM in test [5] (setting [9]); 10 to 100 nM in test [6].
As to `COC(C)(C)C(=O)NC(=O)Nc1ccc(Oc2ccnc(-c3ccnc(C)c3)c2)cn1` [Example 160, 2-methoxy-2-methyl-N-((5-((2′-methyl-[2,4′-bipyridin]-4-yl)oxy)pyridin-2-yl)carbamoyl)propanamide], the IC50 in test [1] was under 10 nM; in test [2] (setting [7]), over 1000 nM; in test [3] (setting [8]) it was over 1000 nM; in test [4], under 10 nM; in test [5] (setting [9]) it was under 10 nM; in test [6], 10 to 100 nM.
As to `Cc1ncc(-c2cc(Oc3ccc(NC(=O)NC(=O)C(C)(C)C)nc3)ccn2)s1` [Example 70, N-((5-((2-(2-methylthiazol-5-yl)pyridin-4-yl)oxy)pyridin-2-yl)carbamoyl)pivalamide], the IC50 in test [1] is 10 to 100 nM; in test [2] (IC50 (nM) uKIT, Table 3) it was 2600 nM; in test [2] (setting [7]), over 1000 nM; in test [3] (IC50 (nM) uPDGFRβ, Table 3) it was 922 nM; in test [3] (setting [8]), 100 to 1000 nM; in test [4], 10 to 100 nM. The IC50 in test [5] (IC50 (nM) uFMS, Table 3) was 4 nM; in test [5] (setting [9]) it was under 10 nM; in test [6] it was under 10 nM.
`COC(C)(C)C(=O)NC(=O)Nc1ccc(Oc2ccnc(-c3cn(C)cn3)c2)cn1` [Example 132, 2-methoxy-2-methyl-N-((5-((2-(1-methyl-1H-imidazol-4-yl)pyridin-4-yl)oxy)pyridin-2-yl)carbamoyl)propanamide]: the IC50 in test [1] is under 10 nM; in test [2] (setting [7]) it was over 1000 nM; in test [3] (setting [8]), 100 to 1000 nM; in test [4], 10 to 100 nM; in test [5] (setting [9]) it was under 10 nM; in test [6], under 10 nM.
On to `Cc1nc(NC(=O)NC(=O)C2(C(F)(F)F)CC2)ccc1Oc1ccnc(-c2cnn(C)c2)c1` [Example 34, N-((6-methyl-5-((2-(1-methyl-1H-pyrazol-4-yl)pyridin-4-yl)oxy)pyridin-2-yl)carbamoyl)-1-(trifluoromethyl)cyclopropanecarboxamide], for which the IC50 in test [1] is 10 to 100 nM; in test [2] (setting [7]), 100 to 1000 nM; in test [3] (setting [8]), 100 to 1000 nM; in test [4] it was 10 to 100 nM; in test [5] (setting [9]), under 10 nM; in test [6], under 10 nM.
With `COC(C)(C)C(=O)NC(=O)Nc1ccc(Oc2ccnc(-c3cnc(C(C)C)[nH]3)c2)cn1` [Example 173, N-((5-((2-(2-isopropyl-1H-imidazol-5-yl)pyridin-4-yl)oxy)pyridin-2-yl)carbamoyl)-2-methoxy-2-methylpropanamide], the IC50 is under 10 nM in test [1]; over 1000 nM in test [2] (setting [7]); over 1000 nM in test [3] (setting [8]); 10 to 100 nM in test [4]; 10 to 100 nM in test [5] (setting [9]); 10 to 100 nM in test [6].
In the case of `CCC(C)(C)C(=O)NC(=O)Nc1ccc(Oc2ccnc(-c3cnn(C)c3)c2)c(C)n1` [Example 69, 2,2-dimethyl-N-((6-methyl-5-((2-(1-methyl-1H-pyrazol-4-yl)pyridin-4-yl)oxy)pyridin-2-yl)carbamoyl)butanamide], the IC50 in test [1] is 10 to 100 nM; in test [2] (setting [7]) it was 100 to 1000 nM; in test [3] (setting [8]), 100 to 1000 nM; in test [4], under 10 nM; in test [5] (setting [9]) it was under 10 nM; in test [6], 10 to 100 nM.
Regarding `CCOC(C)(C)C(=O)NC(=O)Nc1ccc(Oc2ccnc(-c3cnn(C)c3)c2)c(C)n1` [Example 127, 2-ethoxy-2-methyl-N-((6-methyl-5-((2-(1-methyl-1H-pyrazol-4-yl)pyridin-4-yl)oxy)pyridin-2-yl)carbamoyl)propanamide], the IC50 in test [1] was 10 to 100 nM; in test [2] (setting [7]) it was 100 to 1000 nM; in test [3] (setting [8]), 100 to 1000 nM; in test [4], 10 to 100 nM; in test [5] (setting [9]) it was under 10 nM; in test [6], under 10 nM.
